Legend:
red blood cells [1] = experiment: Thaw and overall hemolysis, 10% glycerol reduced cryopreservation model (Example 3); type: cell-based, human; conditions: 10% (w/v) glycerol base
Experimental: The model used is a reduced glycerol cryopreservation system. 10% (w/v) glycerol is added to the unit prior to freezing at −80° C.
A single unit of packed red blood cells in ADSOL was obtained using standard blood banking protocols. […] From this red blood cell unit 50 ml of red cells was placed into each of 3 PVC freezing bags having a maximum volume of 150 ml. An equal volume (50 ml) was added to each of the bags composed of the above preservation solution and the experimental conditions. The final composition of the first bag was 10% (w/v) glycerol. […] The overall hemolysis was also determined.

red blood cells [2] = experiment: Thaw, overall and final hemolysis, glycerol based cryoprotectant with additives (Example 2); type: cell-based, human; conditions: additives in 20% glycerol; for Hemolysis (%) Overall: after glycerol removal by serial dilution with saline; for Hemolysis (%) Final (residual free hemoglobin): final residual free hemoglobin after wash; for Hemolysis (%) Thaw: frozen −80° C. 2-7 days, thawed 37° C. 10 minutes
Experimental: Fifty ml of packed red blood cells were added to a PVC freezing bag. Isotonic saline or preservative solution containing the additional biochemical reagents of interest was mixed with the red blood cells. The samples were treated as follows prior to freezing at −80° C.: • 1. 40% Glycerol • 2. 20% Glycerol • 3. Nicotinamide • 4.
A volume of Glycerolyte 57 (Fenwall) was added slowly until the final concentration of glycerol was achieved. The total volume of all additions was 50 ml, making the final volume of the red blood cell unit 100 ml. The PVC bags were frozen at −80° C. for 2-7 days and thawed by submersion in a 37° C. water bath for 10 minutes. The level of thaw hemolysis was determined as the ratio of free hemoglobin to total hemoglobin. Additionally, the glycerol was removed from the thawed red blood cell units by serial dilution with saline similar to blood bank protocols. The overall hemolysis and the final residual free hemoglobin levels were also determined.

red blood cells [3] = experiment: Thaw and overall hemolysis, glycerol-based cryoprotectant with biochemical stabilization (Example 4); type: cell-based, human; conditions: for % Hemolysis Thaw: frozen −80° C., thawed 37° C. water bath 10 minutes; for % Hemolysis Overall: overall hemolysis following the wash with 12%, 1.6% and 0.9% saline
Experimental: An aliquot of blood was transferred to a PVC storage bag, to which any experimental agents were added. Glycerol was then added until the desired final glycerol was achieved. This unit was frozen at −80° C., stored and thawed in a 37° C. water bath for 10 minutes. […] The values indicate the percent hemolysis in the thawed sample, the overall amount of hemolysis following the wash and the is percent of residual free hemoglobin in the final sample. Hemolysis is calculated as the ratio of free hemoglobin to the total hemoglobin content in the sample.

red blood cells [4] = experiment: Thaw hemolysis of red blood cells frozen at −80° C. with reduced glycerol (Example 1); type: cell-based, human; conditions: frozen at −80° C. 2-7 days, thawed 37° C. water bath 10 minutes; ratio of free to total hemoglobin
Experimental: A significant percentage of the hemolytic damage is shown to be reversed by the addition of a preservative solution containing adenine, glutamine, sodium chloride, mannitol, and dextrose, with the essential additive being dextrose, and final concentrations of 5 mM pentoxifylline and 25 μg/ml flurbiprofen in DMSO as a carrier.
Specifically, 50 ml of packed red blood cells was added to a PVC freezing bag with a maximum volume of 150 ml. Isotonic saline or preservative solution containing the additional biochemical reagents pentoxifylline and flurbiprofen was mixed with the red blood cells. A volume of Glycerolyte 57 (Fenwall) was added slowly until the final concentration of glycerol was achieved. The total volume of all additions was 50 ml, making the final […] of the red blood cell unit 100 ml. […] The levels of thaw hemolysis are shown below in TABLE 1.

red blood cells [5] = conditions: frozen storage at −80° C., glycerol washed out prior to transfusion; typical level; cited from earlier work
red blood cells [6] = test system: red blood cells
Source text: Additionally, the glycerol was removed from the thawed red blood cell units by serial dilution with saline similar to blood bank protocols.

[7] = listed as 20% Glycerol with Control

Structure (SMILES)	Hemolysis (%) Overall (red blood cells [2]) [%]	Hemolysis (%) Final (residual free hemoglobin) (red blood cells [2]) [%]	Hemolysis (%) Thaw (red blood cells [2]) [%]	% Hemolysis (level of thaw hemolysis) (red blood cells [4]) [%]	also measured
OCC(O)CO [10% Glycerol, glycerol]					% Hemolysis Overall (red blood cells [1]; after glycerol removal by serial dilution with saline): 93.62 ± 1.28%; % Hemolysis Thaw (red blood cells [1]; frozen −80° C. 2-7 days, thawed 37° C. 10 minutes): 61.71 ± 1.26%
OCC(O)CO [20% Glycerol, glycerol]	41.48	1.09	9.39	35.29	% Hemolysis Thaw (red blood cells [3]; [7]): 37.9%; % Hemolysis Overall (red blood cells [3]; [7]): 52.0%
OCC(O)CO [30% Glycerol, glycerol]				3.53	
OCC(O)CO [40% Glycerol, glycerol]	14.1	0.45	2.01	1.91	hemolysis during the wash procedure (red blood cells [5]): 10-15%; % Hemolysis Thaw (red blood cells [3]): 1.9%; % Hemolysis Overall (red blood cells [3]): 6.1%
C[S+](C)[O-] [DMSO, dimethyl sulfoxide]					% Hemolysis (red blood cells [6]): 23.17 ± 0.58%
NC(=O)c1cccnc1 [Nicotinamide]	22.93	0.43	8.13		

From patent US8895236B2, “Composition for cryopreservation comprising nicotinamide, glycerol and red blood cells” (priority 1998, dated 2014)
